Data published in US9856216B2, “Compounds as TNIK, IKKε and TBK1 inhibitors and pharmaceutical composition comprising same” (GREEN CROSS CORPORATION, priority 2015, dated 2018).
pIC50: −log10 of the molar value.

biological target: T1, TNIK (Homo sapiens, UniProt Q9UKE5); test: ADP-Glo Kinase Assay, inhibition activity on TNIK; assay type: biochemical; settings: read-out: TNIK
T1 construct: purchased Promega V4158
Description: The inhibition activities on TNIK, IKKε and TBK1 were measured by a luminometer, TNIK/IKKε/TBK1 Kinase Enzyme System (Promega, Ca# V4158; Invitrogen, PR8031B, Promega, Ca# V3991) and ADP-Glo Kinase Assay using ADP-Glo™ Kinase Analysis Kit (Promega, Ca# V9101) and a kinase reaction buffer [40 mM Tris(pH 7.5), 20 mM MgCl2, 0.1 mg/mL BSA] in accordance with the manufacturer's protocol.

T1 sequence (Q9UKE5 1-367 limits assumed): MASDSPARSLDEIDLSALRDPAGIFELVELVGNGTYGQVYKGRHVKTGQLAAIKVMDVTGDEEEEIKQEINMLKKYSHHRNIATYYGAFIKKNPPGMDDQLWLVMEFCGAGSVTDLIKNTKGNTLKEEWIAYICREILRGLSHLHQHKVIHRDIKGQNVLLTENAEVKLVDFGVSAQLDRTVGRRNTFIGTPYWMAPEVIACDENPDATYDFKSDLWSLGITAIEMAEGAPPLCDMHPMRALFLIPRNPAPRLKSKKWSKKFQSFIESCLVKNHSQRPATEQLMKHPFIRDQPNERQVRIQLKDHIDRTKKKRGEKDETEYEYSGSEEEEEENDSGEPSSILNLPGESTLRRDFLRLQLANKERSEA

SMILES	pIC50
O=C(Nc1ccc(-c2ccccc2)c2c1C(=O)NC2)c1ccc(NCCO)cc1 [Example 380, 4-((2-Hydroxyethyl)amino)-N-(3-oxo-7-phenylisoindolin-4-yl) benzamide]	6.64
CN(C)CCCNc1ccc(C(=O)Nc2ccc(-c3ccccc3)c3c2C(=O)NC3)cc1 [Example 381, 4-((3-(Dimethylamino)propyl)amino)-N-(3-oxo-7-phenylisoindolin-4-yl) benzamide]	6.51
O=C(Nc1ccc(-c2ccccc2)c2c1C(=O)NC2)c1ccc(NCCCO)cc1 [Example 382, 4-((3-Hydroxypropyl)amino)-N-(3-oxo-7-phenylisoindolin-4-yl) benzamide]	6.48
O=C(Nc1ccc(-c2ccccc2)c2c1C(=O)NC2)c1ccc(NCCCCO)cc1 [Example 383, 4-((4-Hydroxybutyl)amino)-N-(3-oxo-7-phenylisoindolin-4-yl) benzamide]	6.42
O=C(Nc1ccc(-c2cc3ccccc3o2)c2c1C(=O)NC2)c1ccc(NCCN2CCCC2)cc1 [Example 384, N-(7-(benzofuran-2-yl)-3-oxoisoindolin-4-yl)-4-((2-(pyrrolidin-1-yl)ethyl)amino)benzamide]	5.95
CNC(=O)c1ccc(NC(=O)c2ccc(F)cc2)c2c1CNC2=O [Example 389, 7-(4-Fluorobenzamido)-N-methyl-1-oxoisoindoline-4-carboxamide]	< 4.70
CNC(=O)c1ccc(NC(=O)c2ccc(NCCN3CCCC3)cc2)c2c1CNC2=O [Example 390, N-methyl-1-oxo-7-(4-((2-(pyrrolidin-1-yl)ethyl)amino)benzamido)isoindoline-4-carboxamide]	5.41
O=C(Nc1ccc(C(=O)N2CCCC2)c2c1C(=O)NC2)c1ccc(F)cc1 [Example 391, 4-Fluoro-N-(3-oxo-7-(pyrrolidine-1-carbonyl)isoindolin-4-yl) benzamide]	< 4.70
O=C(Nc1ccc(C(=O)N2CCCC2)c2c1C(=O)NC2)c1ccc(NCCN2CCCC2)cc1 [Example 392, N-(3-oxo-7-(pyrrolidine-1-carbonyl)isoindolin-4-yl)-4-((2-(pyrrolidin-1-yl)ethyl)amino)benzamide]	< 4.70
CC(C)(O)c1ccc(NC(=O)c2ccc(F)cc2)c2c1CNC2=O [Example 393, 4-Fluoro-N-(7-(2-hydroxypropan-2-yl)-3-oxoisoindolin-4-yl) benzamide]	5.59
CC(C)(O)c1ccc(NC(=O)c2ccc(NCCN3CCCC3)cc2)c2c1CNC2=O [Example 394, N-(7-(2-hydroxypropan-2-yl)-3-oxoisoindolin-4-yl)-4-((2-(pyrrolidin-1-yl)ethyl)amino)benzamide]	5.26
O=C(Nc1ccc(O)c2c1C(=O)NC2)c1ccc(F)cc1 [Example 396, 4-Fluoro-N-(7-hydroxy-3-oxoisoindolin-4-yl)benzamide]	5.89
O=C(Nc1ccc(-c2ccccc2)c2c1C(=O)NCC2)c1ccccc1 [Example 398, N-(1-oxo-5-phenyl-1,2,3,4-tetrahydroisoquinolin-8-yl) benzamide]	5.48
O=C(Nc1ccc(-c2ccccc2)c2c1C(=O)NCC2)c1ccco1 [Example 399, N-(1-oxo-5-phenyl-1,2,3,4-tetrahydroisoquinolin-8-yl)furan-2-carboxamide]	5.74
COc1cccc(-c2ccc(NC(=O)c3ccc(F)cc3)c3c2CCNC3=O)c1OC [Example 400, N-(5-(2,3-dimethoxyphenyl)-1-oxo-1,2,3,4-tetrahydroisoquinolin-8-yl)-4-fluorobenzamide]	5.09
O=C(Nc1ccc(Br)c2c1C(=O)NCC2)c1ccc(NCCN2CCCC2)cc1 [Example 403, N-(5-bromo-1-oxo-1,2,3,4-tetrahydroisoquinolin-8-yl)-4-((2-(pyrrolidin-1-yl)ethyl)amino)benzamide]	5.01
O=C(Nc1ccc(Sc2ccccc2)c2c1C(=O)NC2)c1ccc(F)cc1 [Example 404, 4-Fluoro-N-(3-oxo-7-(phenylthio)isoindolin-4-yl)benzamide]	< 4.70
O=C(Nc1ccc(S(=O)(=O)c2ccccc2)c2c1C(=O)NC2)c1ccccc1 [Example 406, N-(3-oxo-7-(phenylsulfonyl)isoindolin-4-yl)benzamide]	< 4.70
O=C(Nc1ccc(Nc2ccccc2)c2c1C(=O)NC2)c1ccc(F)cc1 [Example 408, 4-Fluoro-N-(3-oxo-7-(phenylamino)isoindolin-4-yl)benzamide]	6.55
O=C(Nc1ccc(Nc2ccccc2)c2c1C(=O)NC2)c1ccccc1 [Example 409, N-(3-oxo-7-(phenylamino)isoindolin-4-yl)benzamide]	6.49
Cc1ccccc1Nc1ccc(NC(=O)c2ccccc2)c2c1CNC2=O [Example 411, N-(3-oxo-7-(o-tolylamino)isoindolin-4-yl)benzamide]	< 4.70
Cc1ccc(Nc2ccc(NC(=O)c3ccccc3)c3c2CNC3=O)cc1 [Example 412, N-(3-oxo-7-(p-tolylamino)isoindolin-4-yl)benzamide]	5.39
O=C(Nc1ccc(Nc2ccccc2F)c2c1C(=O)NC2)c1ccccc1 [Example 413, N-(7-((2-fluorophenyl)amino)-3-oxoisoindolin-4-yl)benzamide]	6.30
O=C(Nc1ccc(Nc2ccc(F)cc2)c2c1C(=O)NC2)c1ccccc1 [Example 414, N-(7-((4-fluorophenyl)amino)-3-oxoisoindolin-4-yl)benzamide]	6.26
O=C(Nc1ccc(Nc2cccc(F)c2)c2c1C(=O)NC2)c1ccccc1 [Example 415, N-(7-((3-fluorophenyl)amino)-3-oxoisoindolin-4-yl)benzamide]	5.77
O=C(Nc1ccc(Nc2ccccc2)c2c1C(=O)NC2)c1cccc(F)c1 [Example 421, 3-Fluoro-N-(3-oxo-7-(phenylamino)isoindolin-4-yl)benzamide]	6.09

Other lines, results leading:

pIC50	SMILES
6.89	CN1CCN(CCNc2ccc(C(=O)Nc3ccc(-c4cccs4)c4c3C(=O)NC4)cc2)CC1 [Example 378, 4-((2-(4-Methylpiperazin-1-yl)ethyl)amino)-N-(3-oxo-7-(thiophen-2-yl)isoindolin-4-yl)benzamide]
6.46	CN1CCN(CCNc2ccc(C(=O)Nc3ccc(-c4ccccc4)c4c3C(=O)NC4)cc2)CC1 [Example 379, 4-((2-(4-Methylpiperazin-1-yl)ethyl)amino)-N-(3-oxo-7-phenylisoindolin-4-yl)benzamide]
6.11	O=C(Nc1ccc(-c2ccc3ncccc3c2)c2c1C(=O)NC2)c1ccc(NCCN2CCCC2)cc1 [Example 385, N-(3-oxo-7-(quinolin-6-yl)isoindolin-4-yl)-4-((2-(pyrrolidin-1-yl)ethyl)amino)benzamide]
7.00	O=C(Nc1ccc(-c2cccc3ncccc23)c2c1C(=O)NC2)c1ccc(NCCN2CCCC2)cc1 [Example 386, N-(3-oxo-7-(quinolin-5-yl)isoindolin-4-yl)-4-((2-(pyrrolidin-1-yl)ethyl)amino)benzamide]
7.48	O=C(Nc1ccc(-c2ccnc3ccccc23)c2c1C(=O)NC2)c1ccc(NCCN2CCCC2)cc1 [Example 387, N-(3-oxo-7-(quinolin-4-yl)isoindolin-4-yl)-4-((2-(pyrrolidin-1-yl)ethyl)amino)benzamide]
5.41	O=C(Nc1ccc(C(=O)O)c2c1C(=O)NC2)c1ccc(F)cc1 [Example 388, 7-(4-Fluorobenzamido)-1-oxoisoindoline-4-carboxylic acid]
5.27	CC(=O)Nc1ccc(C(=O)Nc2ccc(-c3ccccc3)c3c2C(=O)NCC3)cc1 [Example 397, 4-Acetamido-N-(1-oxo-5-phenyl-1,2,3,4-tetrahydroisoquinolin-8-yl)benzamide]
5.67	O=C(Nc1ccc(-c2ccccc2)c2c1C(=O)NCC2)c1ccc(NCCN2CCCC2)cc1 [Example 401, N-(1-oxo-5-phenyl-1,2,3,4-tetrahydroisoquinolin-8-yl)-4-((2-(pyrrolidin-1-yl)ethyl)amino)benzamide]
5.62	COc1ccccc1-c1ccc(NC(=O)c2ccc(NCCN3CCCC3)cc2)c2c1CCNC2=O [Example 402, N-(5-(2-methoxyphenyl)-1-oxo-1,2,3,4-tetrahydroisoquinolin-8-yl)-4-((2-(pyrrolidin-1-yl)ethyl)amino)benzamide]
5.64	O=C(Nc1ccc(Sc2ccccc2)c2c1C(=O)NC2)c1ccccc1 [Example 407, N-(3-oxo-7-(phenylthio)isoindolin-4-yl)benzamide]
6.35	COc1ccccc1Nc1ccc(NC(=O)c2ccccc2)c2c1CNC2=O [Example 410, N-(7-((2-methoxyphenyl)amino)-3-oxoisoindolin-4-yl) benzamide]
5.43	COc1ccc(Nc2ccc(NC(=O)c3ccccc3)c3c2CNC3=O)cc1 [Example 416, N-(7-((4-methoxyphenyl)amino)-3-oxoisoindolin-4-yl) benzamide]
6.30	Cc1ccc(C(=O)Nc2ccc(Nc3ccccc3)c3c2C(=O)NC3)cc1 [Example 417, 4-Methyl-N-(3-oxo-7-(phenylamino)isoindolin-4-yl)benzamide]
5.93	O=C(Nc1ccc(Nc2cccc(Cl)c2)c2c1C(=O)NC2)c1ccc(F)cc1 [Example 418, N-(7-((3-chlorophenyl)amino)-3-oxoisoindolin-4-yl)-4-fluorobenzamide]
5.68	O=C(Nc1ccc(Nc2ccccc2Cl)c2c1C(=O)NC2)c1ccc(F)cc1 [Example 419, N-(7-((2-chlorophenyl)amino)-3-oxoisoindolin-4-yl)-4-fluorobenzamide]
6.10	O=C(Nc1ccc(Nc2ccccc2)c2c1C(=O)NC2)c1ccccc1F [Example 420, 2-Fluoro-N-(3-oxo-7-(phenylamino)isoindolin-4-yl)benzamide]
5.93	COc1cccc(Nc2ccc(NC(=O)c3ccc(F)cc3)c3c2CNC3=O)c1OC [Example 422, N-(7-((2,3-dimethoxyphenyl)amino)-3-oxoisoindolin-4-yl)-4-fluorobenzamide]
